Laboratory results published in ChEMBL document CHEMBL2157944, “Evaluation of structure-derived pharmacophore of soluble epoxide hydrolase inhibitors by virtual screening” (Bioorg Med Chem Lett, 2012).

Columns and labels:
[1] = target: T1, Bifunctional epoxide hydrolase 2 (Homo sapiens, UniProt P34913); experiment: Inhibition of sEH using (3-Phenyl-oxiranyl)-acetic acid cyano-(6-methoxy-naphthalen-2-yl)-methyl ester) as substrate incubated for 15 mins prior to substrate addition measured every min for 15 mins by fluorimetric analysis
T1 sequence (P34913 whole entry): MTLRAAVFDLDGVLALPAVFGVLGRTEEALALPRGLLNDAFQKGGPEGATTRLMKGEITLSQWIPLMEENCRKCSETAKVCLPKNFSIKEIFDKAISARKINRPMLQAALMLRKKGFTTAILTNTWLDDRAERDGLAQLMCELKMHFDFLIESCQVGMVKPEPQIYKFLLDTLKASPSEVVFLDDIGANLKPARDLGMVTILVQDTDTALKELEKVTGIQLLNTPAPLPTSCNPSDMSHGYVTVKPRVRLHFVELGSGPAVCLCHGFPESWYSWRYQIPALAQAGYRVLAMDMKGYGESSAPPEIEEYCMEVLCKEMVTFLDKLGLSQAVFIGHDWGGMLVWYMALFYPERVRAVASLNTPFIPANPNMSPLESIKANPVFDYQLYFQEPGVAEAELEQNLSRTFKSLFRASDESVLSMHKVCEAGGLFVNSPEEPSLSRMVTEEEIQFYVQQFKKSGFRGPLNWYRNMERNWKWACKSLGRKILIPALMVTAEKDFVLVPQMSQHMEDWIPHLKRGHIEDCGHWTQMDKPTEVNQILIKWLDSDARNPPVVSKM

[2] = Solubility of the compound at >100 uM; assay type: physicochemical
[3] = Solubility of the compound; assay type: physicochemical

IC50 [1] | Structure (SMILES) | also measured
3.2 µM | O=C(Nc1cccc(Cl)c1)OCCCNS(=O)(=O)c1cccc([N+](=O)[O-])c1 | 
25 µM | O=C(NCCCNc1ncc(-c2ccncc2)c(C2CC2)n1)c1ccccn1 | 

The next lines start with the molecule.

Structure (SMILES) | IC50 [1] | also measured
O=C(Nc1cccc(O)c1)OCC1c2ccccc2-c2ccccc21 | 5.5 µM | 
Cc1cc(-c2cnc(NCCCc3ccccn3)nc2C(C)C)on1 |  | solubility [2]: Insoluble
NS(=O)(=O)c1ccc(CNc2ncc(-c3ccncc3)c(C3CC3)n2)cc1 |  | solubility [3]: Insoluble
